Measurements as given in patent US20250073199A1, “Polymyxin Antibiotic Synergist and Anti-Gram-Negative Bacteria Pharmaceutical Composition” (Artivila Biopharma, priority 2022, published 2025).

How the values were obtained:
[1] = tested on: clinical polymyxin B-resistant strain of Klebsiella pneumoniae (38206); test: Mouse lung infection model, survival; type: in vivo, BALB/c female mice; conditions: intraperitoneal injection, 7 days
Description: The dronedarone and the polymyxin B were combined to form a pharmaceutical composition, and used in combination in a mouse infection model to further illustrate the present disclosure.
1) Establishment of lung infection model: 60 BALB/c female mice aged 6-8 weeks (weighing about 20 g) were injected intrapulmonically with a lethal dose of a clinical polymyxin B-resistant strain of Klebsiella pneumoniae (38206) to establish an infection model. The concentration of the clinical polymyxin B-resistant strain of Klebsiella pneumoniae 38206 was 1.0×10^8 CFUs per mouse;
2) Group treatment: The female mice were randomly divided into six groups (n=10 mice per group), and treated with the drug through intraperitoneal injection.
Among them, the six groups included a control group (injected with a PBS buffer), a treatment group I (injected with 0.2 mg/kg of the polymyxin B alone), a treatment group II (injected with 10 mg/kg of the dronedarone alone), a treatment group III (injected with a mixed solution of 0.2 mg/kg of the polymyxin B and 1 mg/kg of the dronedarone), a treatment group IV (injected with a mixed solution of 0.2 mg/kg of the polymyxin B and 5 mg/kg of the dronedarone), and a treatment group V (injected with a mixed solution of 0.2 mg/kg of the polymyxin B and 10 mg/kg of the dronedarone). […]

[2] = tested on: standard strain of Pseudomonas aeruginosa ATCC27853; test: Chessboard combination test, bacterial inhibition rate / MIC / FIC; type: cell-based; conditions: FIG. 5
Description: (§1) 1) a standard strain of Klebsiella pneumoniae ATCC13883, a clinical resistant strain of Klebsiella pneumoniae 38206, a standard strain of Acinetobacter baumannii ATCC19606, a standard strain of Escherichia coli ATCC25922, and a standard strain of Pseudomonas aeruginosa ATCC27853 were respectively cultured at 37° C. and under shaking at 220 rpm until OD600=0.6-0.8, where OD600 referred to the absorbance of the solution at a wavelength of 600 nm.
(§2) 2) The density of each bacterial culture with OD600=0.6-0.8 cultured in step 1) was adjusted to OD600=0.001 and placed in a chessboard experimental device.
(§3) 3) Polymyxin B was subjected to 2-fold serial dilution along the horizontal axis, and dronedarone was subjected to 2-fold serial dilution along the vertical axis.
(§4) 4) A blank group (added with a LB broth medium) and a control group (added with a LB broth medium and the standard bacterial solution cultured in step 1).
(§5) 5) The final volume in each well of a 96-well plate was controlled to be 100 μL. After incubation for 18 h, each well was added with 10 μL of MTT, incubated at a condition of 37° C. with protection from light for 30 min, and then determined for the absorbance at 600 nm with a microplate reader. The bacterial inhibition rate was calculated according to the formula: bacterial inhibition rate (%)=1−(OD600 of an experimental group−OD600 of the blank group)/(OD600 of the control group−OD600 of the blank group)×100%, and a bacterial calorimetry diagram was drawn (the results were shown in FIGS. 1-5).
(§6) The calculation equation of the FIC index was as follows:
(§7) FIC=MICab/MICa+MICba/MICb=FICa+FICb, wherein a represented the dronedarone, b represented the polymyxin B, MICab was a MIC value of a combination of the dronedarone and the polymyxin B, MICba was a MIC value of a combination of the polymyxin B and the dronedarone, MICa or MICb was a MIC value of the dronedarone or the polymyxin B, respectively, and FICa or FICb was a FIC value of the dronedarone or the polymyxin B, respectively.

[3] = tested on: standard strain of Acinetobacter baumannii ATCC19606; test: as above; type: cell-based; conditions: FIG. 3
Description: as §1, §2, §3, §4, §5, §6, §7

[4] = tested on: standard strain of Escherichia coli ATCC25922; test: as above; type: cell-based; conditions: FIG. 4
Description: as §1, §2, §3, §4, §5, §6, §7

[5] = tested on: standard strain of Klebsiella pneumoniae ATCC13883; test: as above; type: cell-based; conditions: FIG. 1
Description: as §1, §2, §3, §4, §5, §6, §7

[6] = tested on: clinical resistant strain of Klebsiella pneumoniae 38206; test: as above; type: cell-based; conditions: FIG. 2
Description: as §1, §2, §3, §4, §5, §6, §7

[7] = polymyxin B 2 μg/mL, dronedarone not used
[8] = in combination with dronedarone 5 μg/mL
[9] = polymyxin B 1 μg/mL, dronedarone not used
[10] = in combination with dronedarone 2.5 μg/mL
[11] = in combination with polymyxin B 0.25 μg/mL

polymyxin B was tested, and the survival rate ([1]; polymyxin B alone 0.2 mg/kg) was 10%, the “MICba (MIC of polymyxin B after combination with dronedarone)” value (shortened to “MICba”) ([2]; in combination with dronedarone 10 μg/mL) was 1 µg/mL and the inhibition percentage [2, 7] was 100%. For the same compound, the “MIC used alone (MICa, MICb)” value ([2]; used alone) was 2 µg/mL, the “MICba” value [3, 8] was 0.25 µg/mL and the inhibition percentage [3, 9] was 100%. The “MIC used alone (MICa, MICb)” value ([3]; used alone) was 2 µg/mL, the “MICba” value [4, 8] was 0.25 µg/mL and the inhibition percentage [4, 9] was 100%. The “MIC used alone (MICa, MICb)” value ([4]; used alone) was 1 µg/mL, the “MICba” value [5, 10] was 0.13 µg/mL and the inhibition percentage [5, 7] was 100%. For the same compound, the “MIC used alone (MICa, MICb)” value ([5]; used alone) was 2 µg/mL, the “MICba” value [6, 10] was 4 µg/mL and the inhibition percentage ([6]; polymyxin B 16 μg/mL, dronedarone not used) was 100%. For the same compound, the “MIC used alone (MICa, MICb)” value ([6]; used alone) was 16 µg/mL.

CCCCc1oc2ccc(NS(C)(=O)=O)cc2c1C(=O)c1ccc(OCCCN(CCCC)CCCC)cc1 [dronedarone, N-[2-butyl-3-[4-[3-(dibutylamino)propoxy]benzoyl]-1-benzofuran-5-yl]methanesulfonamide] showed a survival rate ([1]; dronedarone alone 10 mg/kg) of 10%, an inhibition at 20 µg/mL ([2]; Pseudomonas aeruginosa, ATCC27853, dronedarone alone at highest concentration 20 μg/mL, no polymyxin B, read-out: bacterial inhibition percentage) of about 0% and an MIC ([2]; Pseudomonas aeruginosa, ATCC27853, used alone, read-out: MIC used alone (MICa, MICb)) of over 20 µg/mL. The “MICab (MIC of dronedarone after combination with polymyxin B)” value (“MICab” for short) ([2]; in combination with polymyxin B 1 μg/mL) was 10 µg/mL, the inhibition at 20 µg/mL ([3]; Acinetobacter baumannii, ATCC19606, dronedarone alone at highest concentration 20 μg/mL, no polymyxin B, read-out: bacterial inhibition percentage) was about 0% and the MIC ([3]; Acinetobacter baumannii, ATCC19606, used alone, read-out: MIC used alone (MICa, MICb)) was over 20 µg/mL. For the same compound, the “MICab” value [3, 11] was 5 µg/mL, the inhibition at 20 µg/mL ([4]; Escherichia coli, ATCC25922, dronedarone alone at highest concentration 20 μg/mL, no polymyxin B, read-out: bacterial inhibition percentage) was about 0% and the MIC ([4]; Escherichia coli, ATCC25922, used alone, read-out: MIC used alone (MICa, MICb)) was over 20 µg/mL. For the same compound, the “MICab” value [4, 11] was 5 µg/mL, the inhibition at 20 µg/mL ([5]; Klebsiella pneumoniae, ATCC13883, dronedarone alone at highest concentration 20 μg/mL, no polymyxin B, read-out: bacterial inhibition percentage) was about 0% and the MIC ([5]; Klebsiella pneumoniae, ATCC13883, used alone, read-out: MIC used alone (MICa, MICb)) was over 20 µg/mL. The “MICab” value ([5]; in combination with polymyxin B 0.13 μg/mL) was 2.5 µg/mL, the inhibition at 20 µg/mL ([6]; Klebsiella pneumoniae, dronedarone alone at highest concentration 20 μg/mL, no polymyxin B, read-out: bacterial inhibition percentage) was about 0% and the MIC ([6]; Klebsiella pneumoniae, used alone, read-out: MIC used alone (MICa, MICb)) was over 20 µg/mL. For the same compound, the “MICab” value ([6]; in combination with polymyxin B 4 μg/mL) was 2.5 µg/mL.
